# ChEMBL document CHEMBL1287721, “Synthesis of potent, substituted carbazoles as selective androgen receptor modulators (SARMs)” (Bioorg Med Chem Lett, 2010)
# Activity calls are given as the source filed them. The calls are words filed in the database; no cut-off is given here.
# Tested on: Rattus norvegicus
# Assay: Positive-anabolic effect in Sprague-Dawley rat assessed as increase in leavator ani muscle weight at 30 mg/kg, po administered once daily for 4 days and measured 24 hrs after the last dose by Herschberger assay
# Assay type: functional, organism-based
# Design: dose 30 mg/kg
# Conditions: Muscle tissue
row,Structure (SMILES),Activity
1,OC1(C(F)(F)F)CCCc2c1[nH]c1cc(Cl)c(Cl)cc21 (stereo unspecified),Active

# Target: T1, Androgen receptor (Homo sapiens, UniProt P10275)
# T1 sequence (P10275 whole entry): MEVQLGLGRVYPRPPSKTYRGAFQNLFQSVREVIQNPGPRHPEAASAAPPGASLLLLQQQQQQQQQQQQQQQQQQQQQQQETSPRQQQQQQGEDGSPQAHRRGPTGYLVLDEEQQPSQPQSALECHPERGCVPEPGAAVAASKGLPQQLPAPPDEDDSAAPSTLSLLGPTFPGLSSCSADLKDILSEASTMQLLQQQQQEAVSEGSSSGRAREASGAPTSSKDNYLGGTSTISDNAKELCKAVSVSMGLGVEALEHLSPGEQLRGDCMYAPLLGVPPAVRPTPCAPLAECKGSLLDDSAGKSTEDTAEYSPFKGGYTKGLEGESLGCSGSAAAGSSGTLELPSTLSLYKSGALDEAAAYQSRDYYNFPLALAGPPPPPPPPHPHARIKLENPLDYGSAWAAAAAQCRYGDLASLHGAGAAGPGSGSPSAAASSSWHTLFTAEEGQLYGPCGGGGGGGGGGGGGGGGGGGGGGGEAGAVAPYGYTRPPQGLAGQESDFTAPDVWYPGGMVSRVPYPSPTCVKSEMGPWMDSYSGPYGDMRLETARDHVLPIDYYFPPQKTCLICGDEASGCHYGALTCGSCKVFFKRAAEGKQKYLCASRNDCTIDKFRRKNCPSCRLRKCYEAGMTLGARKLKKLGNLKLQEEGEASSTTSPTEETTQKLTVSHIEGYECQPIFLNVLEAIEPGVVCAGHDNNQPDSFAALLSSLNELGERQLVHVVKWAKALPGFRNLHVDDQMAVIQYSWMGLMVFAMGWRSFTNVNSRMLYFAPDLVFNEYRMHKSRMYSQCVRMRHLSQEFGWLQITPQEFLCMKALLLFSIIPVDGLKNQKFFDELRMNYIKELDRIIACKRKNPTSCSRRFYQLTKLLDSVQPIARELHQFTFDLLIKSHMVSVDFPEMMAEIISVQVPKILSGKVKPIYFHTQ
# Assay: Binding affinity to androgen receptor by fluorescence binding assay
# Conditions: not given
row,Structure (SMILES),IC50
1,N#Cc1ccc2[nH]c3c(c2c1)CCCC3(O)C(F)(F)C(F)(F)F (stereo unspecified),> 10000 nM
2,OC1(C(F)(F)F)CCCc2c1[nH]c1c(Cl)cc(Cl)cc21 (stereo unspecified),34 nM
3,OC1(C(F)(F)F)CCCCc2c1[nH]c1c(Cl)cc(Cl)cc21 (stereo unspecified),600 nM
4,N#Cc1ccc2[nH]c3c(c2c1)CCCC3(O)C(F)(F)F (stereo unspecified),480 nM
5,OC1(C(F)(F)F)c2[nH]c3c(Cl)cc(Cl)cc3c2CCC1(F)F (stereo unspecified),100 nM
6,CC1(O)CCCc2c1[nH]c1ccc(C#N)cc21 (stereo unspecified),9200 nM
7,OC1(C(F)(F)F)CCCc2c1[nH]c1c(Cl)cc(F)cc21 (stereo unspecified),90 nM

# The remaining lines, values ahead:
row,IC50,Structure (SMILES)
1,27 nM,OC1(C(F)(F)F)CCCc2c1[nH]c1cc(Cl)c(Cl)cc21 (stereo unspecified)
2,95 nM,OC1(C(F)(F)F)CCCc2c1[nH]c1ccc(Cl)c(Cl)c21 (stereo unspecified)
3,> 1000 nM,Oc1c(Cc2ccccc2)ccc2c1[nH]c1cc(Cl)c(Cl)cc12
4,85 nM,OC1(C(F)(F)F)CCCc2c1[nH]c1c(Cl)ccc(Cl)c21 (stereo unspecified)
5,34 nM,OC1(C(F)(F)C(F)(F)F)CCCc2c1[nH]c1cc(Cl)c(Cl)cc21 (stereo unspecified)
6,> 1000 nM,Oc1c(Cc2ccccc2)ccc2c1[nH]c1ccc(Cl)c(Cl)c12
7,> 10000 nM,CC1(O)CCCc2c1[nH]c1cc(Cl)c(Cl)cc21 (stereo unspecified)
8,13 nM,OC1(C(F)(F)F)CCc2c1[nH]c1c(Cl)cc(Cl)cc21 (stereo unspecified)
